Source: article PMC6576746, “Rational discovery of dual-indication multi-target PDE/Kinase inhibitor for precision anti-cancer therapy using structural systems pharmacology” (PLoS Computational Biology, 2019)

Tests used:
Test in all cases: biochemical
Design in all cases: DiscoverX KinomeScan competition binding assay across human kinases; per cent of control at 10 and 100 uM
LIMK2 = LIMK2 (Homo sapiens, UniProt P53671); conditions: competition binding, % of control; read-out: Percent Control (100 uM Levosimendan)
How it was run: (§1)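 Binding is expressed as %control, normalised between positive and negative control signals. The compound (levosimendan) was tested at 10 μM and 100 μM in the DiscoverX KinomeScan competition binding format against human kinases.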

MYLK2 = MYLK2 (Homo sapiens, UniProt Q9H1R3); conditions: competition binding, % of control; read-out: Percent Control (100 uM Levosimendan)
How it was run: as §1

TIE1 = TIE1 (Homo sapiens, UniProt P35590); conditions: competition binding, % of control; read-out: Percent Control (100 uM Levosimendan)
How it was run: as §1

PIK3CA(E542K) = PIK3CA(E542K) (Homo sapiens, UniProt P42336, E542K); conditions: competition binding, % of control; read-out: Percent Control (100 uM Levosimendan)
How it was run: as §1

RET = RET (Homo sapiens, UniProt P07949); conditions: competition binding, % of control; read-out: Percent Control (100 uM Levosimendan)
How it was run: as §1

EPHB6 = EPHB6 (Homo sapiens, UniProt O15197); conditions: competition binding, % of control
How it was run: as §1

TRPM6 = TRPM6 (Homo sapiens, UniProt Q9BX84); conditions: competition binding, % of control; read-out: Percent Control (100 uM Levosimendan)
How it was run: as §1

HUNK = HUNK (Homo sapiens, UniProt P57058); conditions: competition binding, % of control; read-out: Percent Control (100 uM Levosimendan)
How it was run: as §1

ALK = ALK (Homo sapiens, UniProt Q9UM73); conditions: competition binding, % of control; read-out: Percent Control (100 uM Levosimendan)
How it was run: as §1

EGFR(L747-T751del,Sins) = EGFR(L747-T751del,Sins) (Homo sapiens, UniProt P00533, DEL747-750/T751S); conditions: competition binding, % of control; read-out: Percent Control (100 uM Levosimendan)
How it was run: as §1

DDR1 = DDR1 (Homo sapiens, UniProt Q08345); conditions: competition binding, % of control; read-out: Percent Control (100 uM Levosimendan)
How it was run: as §1

VPS34 = biological target: T1, VPS34 (Homo sapiens, UniProt Q8NEB9); conditions: competition binding, % of control; read-out: Percent Control (100 uM Levosimendan)
T1 construct: gene PIK3C3
How it was run: as §1

MAP3K4 = MAP3K4 (Homo sapiens, UniProt Q9Y6R4); conditions: competition binding, % of control; read-out: Percent Control (100 uM Levosimendan)
How it was run: as §1

DCAMKL2 = biological target: T2, DCAMKL2 (Homo sapiens, UniProt Q8N568); conditions: competition binding, % of control; read-out: Percent Control (100 uM Levosimendan)
T2 construct: gene DCLK2
How it was run: as §1

MARK2 = MARK2 (Homo sapiens, UniProt Q7KZI7); conditions: competition binding, % of control; read-out: Percent Control (100 uM Levosimendan)
How it was run: as §1

DDR2 = DDR2 (Homo sapiens, UniProt Q16832); conditions: competition binding, % of control; read-out: Percent Control (100 uM Levosimendan)
How it was run: as §1

PIK3CA(I800L) = PIK3CA(I800L) (Homo sapiens, UniProt P42336, I800L); conditions: competition binding, % of control; read-out: Percent Control (100 uM Levosimendan)
How it was run: as §1

PIK3CA = PIK3CA (Homo sapiens, UniProt P42336); conditions: competition binding, % of control; read-out: Percent Control (100 uM Levosimendan)
How it was run: as §1

MAP4K4 = MAP4K4 (Homo sapiens, UniProt O95819); conditions: competition binding, % of control; read-out: Percent Control (100 uM Levosimendan)
How it was run: as §1

Chain of EPHB6 (O15197 whole entry): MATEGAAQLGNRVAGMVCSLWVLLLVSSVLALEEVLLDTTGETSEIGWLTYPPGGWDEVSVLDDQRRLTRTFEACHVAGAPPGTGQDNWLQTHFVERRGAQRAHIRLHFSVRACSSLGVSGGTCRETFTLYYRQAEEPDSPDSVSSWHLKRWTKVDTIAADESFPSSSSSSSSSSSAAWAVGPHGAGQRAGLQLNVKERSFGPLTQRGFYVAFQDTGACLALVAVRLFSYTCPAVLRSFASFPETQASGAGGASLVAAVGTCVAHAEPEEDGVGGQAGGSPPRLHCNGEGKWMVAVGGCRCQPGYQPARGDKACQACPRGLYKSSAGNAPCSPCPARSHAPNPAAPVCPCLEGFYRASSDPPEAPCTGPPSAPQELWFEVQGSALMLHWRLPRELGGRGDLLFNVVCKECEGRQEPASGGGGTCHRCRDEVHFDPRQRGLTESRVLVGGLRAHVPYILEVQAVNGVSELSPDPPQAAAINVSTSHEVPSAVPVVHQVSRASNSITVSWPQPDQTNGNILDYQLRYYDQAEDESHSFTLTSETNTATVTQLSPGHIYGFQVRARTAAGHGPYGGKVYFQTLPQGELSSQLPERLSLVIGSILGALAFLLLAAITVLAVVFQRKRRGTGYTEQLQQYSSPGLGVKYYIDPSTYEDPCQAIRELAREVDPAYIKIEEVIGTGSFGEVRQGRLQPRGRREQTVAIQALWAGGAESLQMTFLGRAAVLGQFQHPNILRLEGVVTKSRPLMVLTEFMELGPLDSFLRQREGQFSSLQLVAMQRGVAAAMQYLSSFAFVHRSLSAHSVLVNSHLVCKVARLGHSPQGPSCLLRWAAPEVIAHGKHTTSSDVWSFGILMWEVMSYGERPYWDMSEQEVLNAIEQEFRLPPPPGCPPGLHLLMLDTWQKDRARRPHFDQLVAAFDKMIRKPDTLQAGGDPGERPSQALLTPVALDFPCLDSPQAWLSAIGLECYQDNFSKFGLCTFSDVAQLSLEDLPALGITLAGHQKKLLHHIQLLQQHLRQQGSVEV
Chain of RET (P07949 whole entry): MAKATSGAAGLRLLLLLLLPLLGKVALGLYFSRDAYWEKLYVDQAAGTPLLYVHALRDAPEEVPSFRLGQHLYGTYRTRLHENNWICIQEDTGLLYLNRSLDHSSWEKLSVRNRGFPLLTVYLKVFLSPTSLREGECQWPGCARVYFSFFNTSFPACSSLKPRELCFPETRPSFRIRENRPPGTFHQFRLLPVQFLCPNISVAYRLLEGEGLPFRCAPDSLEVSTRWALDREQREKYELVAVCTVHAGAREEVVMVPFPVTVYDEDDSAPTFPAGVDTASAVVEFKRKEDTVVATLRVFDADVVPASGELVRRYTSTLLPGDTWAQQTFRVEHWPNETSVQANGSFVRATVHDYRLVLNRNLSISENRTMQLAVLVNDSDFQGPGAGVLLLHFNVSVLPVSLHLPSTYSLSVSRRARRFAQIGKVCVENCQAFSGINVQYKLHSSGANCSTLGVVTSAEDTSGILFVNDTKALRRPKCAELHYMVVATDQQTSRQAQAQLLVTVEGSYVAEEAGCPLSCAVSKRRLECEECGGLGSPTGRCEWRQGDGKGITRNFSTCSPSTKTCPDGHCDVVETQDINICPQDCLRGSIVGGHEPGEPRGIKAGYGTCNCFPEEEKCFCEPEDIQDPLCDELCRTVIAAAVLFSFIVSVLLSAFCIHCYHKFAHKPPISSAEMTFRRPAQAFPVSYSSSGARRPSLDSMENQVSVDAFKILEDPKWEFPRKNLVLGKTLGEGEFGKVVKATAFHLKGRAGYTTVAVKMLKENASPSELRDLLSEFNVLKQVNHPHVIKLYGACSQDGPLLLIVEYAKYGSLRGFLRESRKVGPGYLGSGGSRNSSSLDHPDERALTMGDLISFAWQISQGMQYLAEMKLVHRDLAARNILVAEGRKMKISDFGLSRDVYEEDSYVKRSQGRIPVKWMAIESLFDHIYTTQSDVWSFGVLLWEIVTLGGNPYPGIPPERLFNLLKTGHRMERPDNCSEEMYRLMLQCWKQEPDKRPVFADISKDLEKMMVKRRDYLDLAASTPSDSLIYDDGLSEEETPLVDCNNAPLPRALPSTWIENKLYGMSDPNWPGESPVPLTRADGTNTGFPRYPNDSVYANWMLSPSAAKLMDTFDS
Chain of LIMK2 (P53671 whole entry): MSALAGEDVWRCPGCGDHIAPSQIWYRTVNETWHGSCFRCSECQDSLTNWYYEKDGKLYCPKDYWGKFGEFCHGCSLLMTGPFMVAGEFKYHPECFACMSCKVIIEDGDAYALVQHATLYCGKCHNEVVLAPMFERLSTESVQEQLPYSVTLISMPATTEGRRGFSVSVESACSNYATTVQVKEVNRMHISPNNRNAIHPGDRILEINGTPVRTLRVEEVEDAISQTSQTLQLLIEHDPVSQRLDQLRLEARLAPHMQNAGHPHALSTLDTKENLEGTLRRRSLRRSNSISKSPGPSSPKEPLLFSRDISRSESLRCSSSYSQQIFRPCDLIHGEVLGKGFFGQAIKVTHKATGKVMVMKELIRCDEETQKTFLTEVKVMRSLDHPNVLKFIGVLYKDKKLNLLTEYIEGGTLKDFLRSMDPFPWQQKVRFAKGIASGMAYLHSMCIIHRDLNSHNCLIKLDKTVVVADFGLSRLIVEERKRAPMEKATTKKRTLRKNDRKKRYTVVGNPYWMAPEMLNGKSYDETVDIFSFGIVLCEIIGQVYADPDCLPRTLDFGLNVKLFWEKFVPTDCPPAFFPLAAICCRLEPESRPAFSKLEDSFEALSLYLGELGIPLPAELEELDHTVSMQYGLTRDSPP
Chain of PIK3CA (P42336 whole entry): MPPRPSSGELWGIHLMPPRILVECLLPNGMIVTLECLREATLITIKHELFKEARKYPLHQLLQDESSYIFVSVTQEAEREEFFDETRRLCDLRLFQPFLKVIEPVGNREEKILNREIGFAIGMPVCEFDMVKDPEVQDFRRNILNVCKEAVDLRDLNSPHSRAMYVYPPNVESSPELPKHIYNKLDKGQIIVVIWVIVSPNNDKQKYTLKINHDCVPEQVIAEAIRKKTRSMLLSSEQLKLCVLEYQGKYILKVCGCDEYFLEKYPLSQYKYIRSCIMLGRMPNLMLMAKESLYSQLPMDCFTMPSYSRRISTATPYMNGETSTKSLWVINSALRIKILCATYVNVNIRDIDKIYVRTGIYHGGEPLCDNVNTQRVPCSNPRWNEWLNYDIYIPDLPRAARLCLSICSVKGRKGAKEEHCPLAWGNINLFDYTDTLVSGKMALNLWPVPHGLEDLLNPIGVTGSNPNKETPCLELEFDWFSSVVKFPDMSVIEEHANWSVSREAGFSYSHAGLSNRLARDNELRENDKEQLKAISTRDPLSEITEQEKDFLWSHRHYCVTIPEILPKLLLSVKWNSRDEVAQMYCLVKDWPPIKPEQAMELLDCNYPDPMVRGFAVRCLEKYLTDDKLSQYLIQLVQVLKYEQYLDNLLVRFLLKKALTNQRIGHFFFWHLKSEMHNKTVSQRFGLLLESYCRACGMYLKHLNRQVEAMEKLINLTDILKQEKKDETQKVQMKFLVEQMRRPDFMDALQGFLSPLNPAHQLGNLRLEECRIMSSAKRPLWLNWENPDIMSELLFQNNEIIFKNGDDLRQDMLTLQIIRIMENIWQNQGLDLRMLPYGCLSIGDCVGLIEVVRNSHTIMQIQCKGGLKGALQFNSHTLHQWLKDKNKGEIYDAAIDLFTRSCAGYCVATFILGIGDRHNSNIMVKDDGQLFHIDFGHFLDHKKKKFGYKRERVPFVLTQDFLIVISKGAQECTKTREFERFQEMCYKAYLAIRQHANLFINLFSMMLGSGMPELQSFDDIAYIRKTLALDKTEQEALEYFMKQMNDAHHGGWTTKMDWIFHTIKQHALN
T1 sequence (Q8NEB9 whole entry): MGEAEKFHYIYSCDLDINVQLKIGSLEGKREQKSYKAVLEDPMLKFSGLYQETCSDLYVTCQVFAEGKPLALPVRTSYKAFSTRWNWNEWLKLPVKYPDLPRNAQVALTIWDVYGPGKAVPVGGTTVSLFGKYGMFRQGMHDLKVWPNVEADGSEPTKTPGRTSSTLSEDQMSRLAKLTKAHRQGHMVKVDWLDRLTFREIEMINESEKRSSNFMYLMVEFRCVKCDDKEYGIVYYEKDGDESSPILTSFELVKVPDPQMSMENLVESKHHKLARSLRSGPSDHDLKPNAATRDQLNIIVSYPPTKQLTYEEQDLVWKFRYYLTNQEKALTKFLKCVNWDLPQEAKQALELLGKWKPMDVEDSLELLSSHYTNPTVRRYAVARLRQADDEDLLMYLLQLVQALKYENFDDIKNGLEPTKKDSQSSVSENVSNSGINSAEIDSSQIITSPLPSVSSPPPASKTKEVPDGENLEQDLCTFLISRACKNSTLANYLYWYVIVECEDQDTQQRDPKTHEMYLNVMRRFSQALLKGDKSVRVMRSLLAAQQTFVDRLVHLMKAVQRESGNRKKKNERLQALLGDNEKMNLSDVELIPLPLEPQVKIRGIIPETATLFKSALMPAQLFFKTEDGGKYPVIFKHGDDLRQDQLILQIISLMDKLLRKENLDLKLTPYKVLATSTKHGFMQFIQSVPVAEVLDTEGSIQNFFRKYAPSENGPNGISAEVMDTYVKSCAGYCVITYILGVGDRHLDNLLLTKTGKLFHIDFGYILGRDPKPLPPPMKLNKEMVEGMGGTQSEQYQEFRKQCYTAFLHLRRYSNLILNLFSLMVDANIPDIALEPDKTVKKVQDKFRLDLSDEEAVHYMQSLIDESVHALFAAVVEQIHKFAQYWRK
Chain of PIK3CA(I800L) (P42336 whole entry I800L): as the sequence (P42336 whole entry) above, with I800L counted along it
Chain of PIK3CA(E542K) (P42336 whole entry E542K): as the sequence (P42336 whole entry) above, with E542K counted along it

C[C@@H]1CC(=O)NN=C1c1ccc(NN=C(C#N)C#N)cc1 [levosimendan]
remaining binding at 100 µM (LIMK2): 87%
remaining binding at 100 µM (MYLK2): 81%
remaining binding at 100 µM (TIE1): 100%
remaining binding at 100 µM (PIK3CA(E542K)): 100%
remaining binding at 100 µM (RET): 88%
remaining binding at 10 µM (EPHB6; read-out: Percent Control (10 uM Levosimendan)): 56%
remaining binding at 100 µM (EPHB6; read-out: Percent Control (100 uM Levosimendan)): 16%
remaining binding at 100 µM (TRPM6): 89%
remaining binding at 100 µM (HUNK): 100%
remaining binding at 100 µM (ALK): 76%
remaining binding at 100 µM (EGFR(L747-T751del,Sins)): 59%
remaining binding at 100 µM (DDR1): 84%
remaining binding at 100 µM (VPS34): 100%
remaining binding at 100 µM (MAP3K4): 58%
remaining binding at 100 µM (DCAMKL2): 100%
remaining binding at 100 µM (MARK2): 95%
remaining binding at 100 µM (DDR2): 79%
remaining binding at 100 µM (PIK3CA(I800L)): 83%
remaining binding at 100 µM (PIK3CA): 96%
remaining binding at 100 µM (MAP4K4): 100%
